Test results from the NIST ThermoML archive (doi:10.1021/je400431e).
Numbers after ± are expanded uncertainties.

Assay: mn = molality of the nth substance listed, in mol/kg
Conditions: 298 K, Ring tensiometer

CCCCCCCCCCCCOS(=O)(=O)[O-].[Na+] [sodium dodecyl sulfate] + O
Conditions | surface tension liquid-gas [mN/m]
m1 = 0.00013 | 66.84 ± 7.5
m1 = 0.00031 | 60.83 ± 4.3
m1 = 0.00102 | 52.39 ± 2
m1 = 0.00303 | 45.05 ± 1.4
m1 = 0.00501 | 40.55 ± 1.2
m1 = 0.007 | 38.58 ± 1.1
m1 = 0.008 | 37.41 ± 1.1
m1 = 0.009 | 37.73 ± 1.1
m1 = 0.01 | 37.99 ± 1.1
m1 = 0.012 | 37.76 ± 1.1

CCCCCCCCCCCC[N+](C)(C)C.[Cl-] [N,N,N-trimethyl-1-dodecanaminium chloride] + O
Conditions | surface tension liquid-gas [mN/m]
m1 = 3e-05 | 56.38 ± 1.8
m1 = 5e-05 | 51.17 ± 1.6
m1 = 7e-05 | 47.18 ± 1.4
m1 = 0.0001 | 41.7 ± 1.2
m1 = 0.00015 | 35.66 ± 1.1
m1 = 0.0002 | 31.91 ± 0.99
m1 = 0.0003 | 28.13 ± 0.89
m1 = 0.0005 | 25.41 ± 0.82
m1 = 0.0007 | 25.28 ± 0.82
m1 = 0.001 | 25.68 ± 0.83
m1 = 0.0013 | 25.4 ± 0.82
m1 = 0.0016 | 25.52 ± 0.83
